Test results published in patent US20230085307A1, “PYRIDAZINONE COMPOUND AND HERBICIDE” (NISSAN CHEMICAL CORPORATION, priority 2019, published 2023).

What was measured:
windgrass [1] = assay: Test Example 5: herbicidal effect by foliage application, plastic box (Table 20, symbol L); assay type: in vivo, windgrass (Apera spica-venti); conditions: amount of applied herbicide 320 g/ha; foliage application after 14-day growth; evaluated three weeks after application
In short: (§1)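 Post-emergence foliar test in sterilized diluvial soil. Compound applied as water-diluted emulsion at a predetermined rate to 14-day-old plants; evaluation at three weeks.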

redroot pigweed [2] = assay: Test Example 5: herbicidal effect by foliage application, plastic box (Table 20, symbol N); assay type: in vivo, redroot pigweed (Amaranthus retroflexus); conditions: amount of applied herbicide 320 g/ha; foliage application after 14-day growth; evaluated three weeks after application
In short: as §1

lambsquarters = assay: Test Example 5: herbicidal effect by foliage application, plastic box (Table 20, symbol O); assay type: in vivo, lambsquarters (Chenopodium album); conditions: amount of applied herbicide 320 g/ha; foliage application after 14-day growth; evaluated three weeks after application
In short: as §1

velvetleaf [3] = assay: Test Example 5: herbicidal effect by foliage application, plastic box (Table 20, symbol M); assay type: in vivo, velvetleaf (Abutilon theophrasti); conditions: amount of applied herbicide 320 g/ha; foliage application after 14-day growth; evaluated three weeks after application
In short: as §1

green foxtail [4] = assay: Test Example 4: herbicidal effect by soil treatment (Table 19, symbol G); assay type: in vivo, green foxtail (Setaria viridis); conditions: amount of applied herbicide 320 g/ha
In short: (§2)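 Scoring uses the grading scale of an earlier test, three weeks post-application. Treatment consists of spraying a diluted emulsion formulation across the surface of sterilized diluvial soil in which seeds are buried near 1.5 cm deep; boxes are kept in a greenhouse between 25° C. and 30° C.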

late watergrass [5] = assay: Test Example 1: herbicidal activity, application before weed generation under submerged conditions (Table 16, symbol A); assay type: in vivo, late watergrass (Echinochloa oryzicola); conditions: amount of applied herbicide 320 g/ha
In short: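 Emulsion formulation, water-diluted to set dose, was put onto the flooded surface (4 cm depth, alluvial soil) the same day weeds were sown and 2.5-leaf rice transplanted. After 3 weeks at 25-30 °C under glass, each species was rated 0 (≤5% kill) to 5 (≥90% kill).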

late watergrass [6] = assay: Test Example 2: herbicidal activity, application during weed generation under submerged conditions (Table 17, symbol A); assay type: in vivo, late watergrass (Echinochloa oryzicola); conditions: AAH 320 g/ha; application during weed generation, submerged conditions
In short: (§3)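 Effect on each weed is rated three weeks post-treatment, using the same scoring criteria as the preceding test. Plants grow from mixed-sown seed in flooded alluvial soil (4 cm water) at 25° C. to 30° C., and are treated at one to two leaves with diluted emulsion dropped onto the water.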

barnyard grass [7] = assay: Test Example 5: herbicidal effect by foliage application, plastic box (Table 20, symbol H); assay type: in vivo, barnyard grass (Echinochloa crus-galli); conditions: amount of applied herbicide 320 g/ha; foliage application after 14-day growth; evaluated three weeks after application
In short: as §1

oval-leafed pondweed = assay: Test Example 2: herbicidal activity, application during weed generation under submerged conditions (Table 17, symbol C); assay type: in vivo, oval-leafed pondweed (Monochoria vaginalis); conditions: AAH 320 g/ha; application during weed generation, submerged conditions
In short: as §3

wild oat = assay: Test Example 5: herbicidal effect by foliage application, plastic box (Table 20, symbol I); assay type: in vivo, wild oat (Avena fatua); conditions: amount of applied herbicide 320 g/ha; foliage application after 14-day growth; evaluated three weeks after application
In short: as §1

barnyard grass [8] = assay: Test Example 3: herbicidal effect by foliage application, Wagner pot (Table 18, symbol H); assay type: in vivo, barnyard grass (Echinochloa crus-galli); conditions: 320 g/ha
In short: (§4)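 Plants were sown in alluvial soil held under 0.1–0.5 cm standing water and grown 14 days in a greenhouse at 25–30 °C. An emulsifiable formulation, water-diluted to the set dose, was then sprayed onto the foliage, and effects were scored three weeks later using previously defined criteria.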

velvetleaf [9] = assay: Test Example 4: herbicidal effect by soil treatment (Table 19, symbol M); assay type: in vivo, velvetleaf (Abutilon theophrasti); conditions: amount of applied herbicide 320 g/ha
In short: as §2

green foxtail [10] = assay: Test Example 5: herbicidal effect by foliage application, plastic box (Table 20, symbol G); assay type: in vivo, green foxtail (Setaria viridis); conditions: amount of applied herbicide 320 g/ha; foliage application after 14-day growth; evaluated three weeks after application
In short: as §1

windgrass [11] = assay: Test Example 4: herbicidal effect by soil treatment (Table 19, symbol L); assay type: in vivo, windgrass (Apera spica-venti); conditions: amount of applied herbicide 320 g/ha
In short: as §2

Chinese sprangletop = assay: Test Example 3: herbicidal effect by foliage application, Wagner pot (Table 18, symbol D); assay type: in vivo, chinese sprangletop (Leptochloa chinensis); conditions: 320 g/ha
In short: as §4

redroot pigweed [12] = assay: Test Example 4: herbicidal effect by soil treatment (Table 19, symbol N); assay type: in vivo, redroot pigweed (Amaranthus retroflexus); conditions: amount of applied herbicide 320 g/ha
In short: as §2

SMILES	Herbicidal effect by foliage application, L: windgrass (windgrass [1])	Herbicidal effect by foliage application, N: redroot pigweed (redroot pigweed [2])	Herbicidal effect by foliage application, O: lambsquarters (lambsquarters)	Herbicidal effect by foliage application, M: velvetleaf (velvetleaf [3])	Herbicidal effect by soil treatment, G: green foxtail (green foxtail [4])	Herbicidal effect, A: late watergrass (late watergrass [5])	herbicidal effect rating, A: late watergrass (late watergrass [6])	Herbicidal effect by foliage application, H: barnyard grass (barnyard grass [7])	herbicidal effect rating, C: oval-leafed pondweed (oval-leafed pondweed)	Herbicidal effect by foliage application, I: wild oat (wild oat)	herbicidal effect on barnyard grass (H) (barnyard grass [8])	Herbicidal effect by soil treatment, M: velvetleaf (velvetleaf [9])	Herbicidal effect by foliage application, G: green foxtail (green foxtail [10])	Herbicidal effect by soil treatment, L: windgrass (windgrass [11])	herbicidal effect on Chinese sprangletop (D) (Chinese sprangletop)	Herbicidal effect by soil treatment, N: redroot pigweed (redroot pigweed [12])	G: green foxtail, herbicidal effect grade (green foxtail [4])	M: velvetleaf, herbicidal effect grade (velvetleaf [9])	L: windgrass, herbicidal effect grade (windgrass [11])	N: redroot pigweed, herbicidal effect grade (redroot pigweed [12])
COc1ccc(-c2sc3c(C)cccc3c2-c2c(O)c(C)nn(C)c2=O)cc1 [4-110]	4 (Herbicidal rate of 70% or more and less than 90%)	5 (Herbicidal rate of 90% or more (almost completely withered))	5 (Herbicidal rate of 90% or more (almost completely withered))	5 (Herbicidal rate of 90% or more (almost completely withered))	0 (Herbicidal rate of 5% or less (almost no effect))	5 (Herbicidal rate of 90% or more (almost completely withered))	0 (Herbicidal rate of 5% or less (almost no effect))	2 (Herbicidal rate of 20% or more and less than 40%)	5 (Herbicidal rate of 90% or more (almost completely withered))	0 (Herbicidal rate of 5% or less (almost no effect))	5 (Herbicidal rate of 90% or more (almost completely withered))	3 (Herbicidal rate of 40% or more and less than 70%)	3 (Herbicidal rate of 40% or more and less than 70%)	0 (Herbicidal rate of 5% or less (almost no effect))	0 (Herbicidal rate of 5% or less (almost no effect))	5 (Herbicidal rate of 90% or more (almost completely withered))	–	–	–	–
CCSc1ccc(-c2sc3c(C)cccc3c2-c2c(O)c(C)nn(C)c2=O)cc1 [4-124]	5 (Herbicidal rate of 90% or more (almost completely withered))	5 (Herbicidal rate of 90% or more (almost completely withered))	5 (Herbicidal rate of 90% or more (almost completely withered))	5 (Herbicidal rate of 90% or more (almost completely withered))	5 (Herbicidal rate of 90% or more (almost completely withered))	4 (Herbicidal rate of 70% or more and less than 90%)	3 (Herbicidal rate of 40% or more and less than 70%)	5 (Herbicidal rate of 90% or more (almost completely withered))	0 (Herbicidal rate of 5% or less (almost no effect))	4 (Herbicidal rate of 70% or more and less than 90%)	5 (Herbicidal rate of 90% or more (almost completely withered))	3 (Herbicidal rate of 40% or more and less than 70%)	5 (Herbicidal rate of 90% or more (almost completely withered))	0 (Herbicidal rate of 5% or less (almost no effect))	3 (Herbicidal rate of 40% or more and less than 70%)	5 (Herbicidal rate of 90% or more (almost completely withered))	–	–	–	–
CCCC(=O)Oc1c(C)nn(C)c(=O)c1-c1c(-c2ccccc2OC)sc2cc(F)c(F)cc12 [5-012]	1 (Herbicidal rate of 5% or more and less than 20%)	4 (Herbicidal rate of 70% or more and less than 90%)	3 (Herbicidal rate of 40% or more and less than 70%)	3 (Herbicidal rate of 40% or more and less than 70%)	–	4 (Herbicidal rate of 70% or more and less than 90%)	0 (Herbicidal rate of 5% or less (almost no effect))	2 (Herbicidal rate of 20% or more and less than 40%)	2 (Herbicidal rate of 20% or more and less than 40%)	2 (Herbicidal rate of 20% or more and less than 40%)	4 (Herbicidal rate of 70% or more and less than 90%)	–	1 (Herbicidal rate of 5% or more and less than 20%)	–	2 (Herbicidal rate of 20% or more and less than 40%)	–	3 (Herbicidal rate of 40% or more and less than 70%)	3 (Herbicidal rate of 40% or more and less than 70%)	3 (Herbicidal rate of 40% or more and less than 70%)	5 (Herbicidal rate of 90% or more (almost completely withered))
COc1ccc(-c2sc3cc(Cl)c(Cl)cc3c2-c2c(O)c(C)nn(C)c2=O)cc1 [5-043]	0 (Herbicidal rate of 5% or less (almost no effect))	3 (Herbicidal rate of 40% or more and less than 70%)	3 (Herbicidal rate of 40% or more and less than 70%)	4 (Herbicidal rate of 70% or more and less than 90%)	–	5 (Herbicidal rate of 90% or more (almost completely withered))	2 (Herbicidal rate of 20% or more and less than 40%)	0 (Herbicidal rate of 5% or less (almost no effect))	0 (Herbicidal rate of 5% or less (almost no effect))	0 (Herbicidal rate of 5% or less (almost no effect))	3 (Herbicidal rate of 40% or more and less than 70%)	–	0 (Herbicidal rate of 5% or less (almost no effect))	–	3 (Herbicidal rate of 40% or more and less than 70%)	–	0 (Herbicidal rate of 5% or less (almost no effect))	0 (Herbicidal rate of 5% or less (almost no effect))	0 (Herbicidal rate of 5% or less (almost no effect))	0 (Herbicidal rate of 5% or less (almost no effect))
